Legend:
[1] = system: genes associated with rapamycin side effects; assay: Single cell RNA sequencing of spleen macrophages and CD4+ regulatory T cells; format: in vivo, C57BL/6J mice; conditions: 1 mg/kg s.c. 11 days
Method: Single Cell RNA Sequencing—Healthy C57BL/6J mice were subjected to a “standard dosage regime.” Animals were injected subcutaneously for 11 days with rapamycin (in 0.2% CMC) or rPS at a dose of 1 mg/kg. Equivalent dose of 1×PBS or PS were injected as controls. After 11 days, the mice were sacrificed, and the liver and spleen were excised. The organs were processed as was done for flow cytometry. CD4+ regulatory T cells and macrophages were isolated using magnetic sorting (MojoSort; BioLegend). Briefly, cells were first incubated in a cocktail of PE anti-mouse CD169 and PE anti-mouse F4/80 antibodies (BioLegend). After washing, incubation in anti-PE nanobeads (BioLegend) occurred. Macrophages were magnetically sorted from non-macrophages. The non-macrophages cell fraction was then incubated in mouse CD4+ T cell isolation biotin-antibody cocktail (BioLegend) and sorted. The CD4+ T cell fraction was then incubated in APC anti-mouse CD25 antibody (BioLegend), followed by washing, incubation in anti-APC nanobeads (BioLegend) and sorting. RNA was isolated from separated macrophages and CD4+ regulatory T cells using R-Neasy Mini Kit with DNAse digestion (Qiagen), Samples were frozen and shipped to Admera Health where they underwent library preparation using the Lexogen 3′ mRNA-Seq Library Prep Kit FWD HT (Lexogen) and were sequenced on an Illumina sequencer (HiSeq 2500 2×150 bp). For each pair, Read 2 was discarded and only Read 1 was used for downstream data analysis. Sequencing quality was analyzed with FastQC v0.11.5^47 and reads were trimmed and filtered with Trimmomatic v0.3948. One sample from the spleen T cell PBS treatment group and one sample from the spleen T cell rapamycin treatment group were discarded due to low sequencing quality. Reads were aligned with STAR v2.6.0a 49 to the GRCm38.p6 mouse reference genome primary assembly using the GRCm38.p6 mouse reference primary comprehensive gene annotation (https://www.gencodegenes.org/mouse/). Quantification and differential expression was performed with Cuffdiff from Cufflinks v2.2.150-52 again using the GRCm38.p6 mouse reference primary comprehensive gene annotation and a 0.05 FDR. Detailed settings for each software are included in Table S1.

[2] = system: red blood cells; conditions: in vivo; cited from earlier work
[3] = system: allogeneic islet graft; assay: Intraportal fully-MHC mismatched allogeneic islet transplantation; format: in vivo, C57BL/6J mice; conditions: standard dosage: 11 daily injections, 1 mg rapamycin per kg
Method: Allogeneic Islet Transplantation—Diabetes was induced via streptozotocin (IP; 190 mg/kg) injection five days prior to transplantation and confirmed via hyperglycemia (blood glucose>400 mg/dl). Starting the day prior to transplantation, mice were injected with PBS, PS, rapamycin, or rPS (N=3 per group) at 1 mg/kg (or equivalent) in accordance with a standard dosage (11 doses, given daily) or a low dosage (6 doses, given every 3rd day). On the day of transplantation, islets were isolated from Balb/c mice via common bile duct cannulation and pancreas distension with collagenase. Islets isolated from two donors (˜200 mouse islets, ˜175 IEQ) were transplanted to C57B6/J recipients via the portal vein. Body weight and blood glucose concentration were monitored closely for 100 days post-transplantation. Intraperitoneal glucose tolerance test (IPGTT) was performed one-month post transplantation. The animals were fasted for 16 hours before being injected intraperitoneally with 2 g dextrose (200 g/L; Gibco) per kg body weight. Blood glucose concentrations were measured at 0, 15, 30, 60- and 120-minutes post-injection.

[4] = in vivo; cited from earlier work
[5] = system: hair follicles at injection site; assay: Alopecia assessment (dorsal photos, H&E histology); format: in vivo, C57BL/6J mice
Text: Alopecia Assessment—Dorsal photos were taken weekly to assess for alopecia. At 100-days post-transplantation, the mice were euthanized and skin samples were excised in the dorsal region at the subcutaneous injection site. Skin samples were placed in cassettes, fixed in 4% paraformaldehyde, and embedded in paraffin. Tissue blocks were sectioned at a thickness of […] and stained with hematoxylin and eosin (H&E). Digital images were taken on a Nikon microscope.

Question: For `CO[C@H]1C[C@@H]2CC[C@@H](C)[C@@](O)(O2)C(=O)C(=O)N2CCCC[C@H]2C(=O)O[C@H]([C@H](C)C[C@@H]2CC[C@@H](O)[C@H](OC)C2)CC(=O)[C@H](C)/C=C(\C)[C@@H](O)[C@@H](OC)C(=O)[C@H](C)C[C@H](C)/C=C/C=C/C=C/1C` [rapamycin], which “ACAA1 Fold Change” value ([1]; Spleen CD4+ Regulatory T Cells) is on record?
Answer: The value was −3.833.

Question: And the “CD79A Fold Change” value ([1]; Spleen CD4+ Regulatory T Cells)?
Answer: The value was −24.

Question: What about the “CRKL Fold Change” value ([1]; Spleen CD4+ Regulatory T Cells) of the same compound?
Answer: The value was 7.387.

Question: And the “MZB1 Fold Change” value ([1]; Spleen CD4+ Regulatory T Cells)?
Answer: Its value is −24.

Question: What about the “PIK3R1 Fold Change” value ([1]; Spleen CD4+ Regulatory T Cells) of the same compound?
Answer: Its value is −12.

Question: What about the “IGF1 Fold Change” value ([1]; Spleen Macrophages) of the same compound?
Answer: The value was −9.108.

Question: What about the “MGAT1 Fold Change” value ([1]; Spleen Macrophages) of the same compound?
Answer: Its value is 5.0747.

Question: What about the “ZDHHC3 Fold Change” value ([1]; Spleen Macrophages) of the same compound?
Answer: Its value is −8.143.

Question: What about the “partition into red blood cells” value [2] of the same compound?
Answer: Its value is 95%.

Question: What about the “mice remaining normoglycemic 100 days post transplantation” value [3] of the same compound?
Answer: Its value is 71%.

Question: What about the “patients impacted by alopecia” value [4] of the same compound?
Answer: The value was “approximately 10%”.

Question: What about the “hair follicles, histological analysis” value ([5]; low dosage) of the same compound?
Answer: The value was “some mature follicles present”.

Question: And the injection site alopecia ([5]; low dosage)?
Answer: Its injection site alopecia is “alopecia was reduced”.

Question: What about the injection site alopecia ([5]; mice treated with free rapamycin) of the same compound?
Answer: Its injection site alopecia is “experienced injection site alopecia”.

Question: What about the “hair follicles, histological analysis” value ([5]; standard dosage) of the same compound?
Answer: Its value is “Only immature follicles”.
